In patent US11814680B2, “Biomarkers for detecting senescent cells” (Universität für Bodenkultur Wien, priority 2017, dated 2023):
“Also recorded” adds a separate entry of the source.

Columns and labels:
Type in all cases: in vivo, mouse
p16-3MR mice [1] = assay: Next generation sequencing of circulating miRNAs in serum after induction (dox) and removal (GCV) of senescent cells; details: NGS
Protocol: p16-3MR (Demaria et al, 2014, Developmental Cell 31:722-733) mice were bred in house and maintained in the AALAC-accredited Buck Institute for Research on Aging (Novato, Calif.) animal facility. 10 to 12-week-old p16-3MR male mice were used for experiments. Mice were divided in 4 groups and each group consisted of 3 animals. In group A, control mice were injected with PBS. In group B, mice were treated with Ganciclovir (GCV) (Sigma-Aldrich) dissolved in PBS for 5 consecutive days. In group C, mice were treated with one dose of Doxorubicine hydrochloride (Sigma-Aldrich) dissolved in PBS. In group D, mice were first treated with Doxorubicine and then treated 10 days later with GCV. Mice were intraperitoneally injected with one dose of 10 mg/kg of Doxorubicine hydrochloride, and GCV was administered daily by intraperitoneal injections for 5 consecutive days at concentration of 25 mg/kg in PBS. 4 days after the last GCV dose, animals were euthanized with CO2 and blood was withdrawn immediately. Blood was then incubated for 30 min at room temperature and centrifuged at 3400×g for 10 min. Serum was carefully collected in a sterile tube without disturbing the cell pellet and stored at −80° C. for further experiments.
Total RNA extraction was performed from 200 μl of serum using the Qiagen miRNeasy™ extraction kit (Qiagen, Germany). RNA yield was quality checked for homogenous extraction efficiency and hemolysis on the basis qPCR amplification of spiked-in as well as hemolysis-responsive RNAs (Blondal et al). In total 2 μl total RNA were used for library preparation using the CleanTag library preparation protocol (Trilink Biotechnologies, USA), which uses chemically modified adapters to prevent adapter self-ligation. Library quality and yield was controlled using Bioanalyzer DNA-1000 chips. Due to the high purity, libraries were not purified prior to sequencing on an ILLUMINA™ NextSeq 500 sequencing system with 50 bp single-end reads.
Next-generation sequencing was performed at Exiqon (Denmark). Raw reads were quality filtered for a Q-score of 30 or higher. Adapter sequences were trimmed and the remaining reads were mapped against the mouse genome, miRBase, non-coding RNA databases and classified as either microRNAs, small RNAs, genome mapping RNAs or outmapped RNA sequences. Read counts were added for all microRNA isoforms (isomiRs) and normalized by dividing the microRNA read count by the total number of mapped reads and multiplying by 1 million (Tags Per Million). Tags per millions were used for data mining (PCA and hierarchical clustering) using the web-tool clustvis (Metsalu and Vilo 2015).
For differential expression analysis, the EdgeR statistical software package was used. For normalization, the trimmed mean of M-values method was used based on log-fold and absolute gene wise changes in expression levels between samples (TMM normalization). […] Additionally, the normalization step offsets under-sampling effects (due to highly expressed microRNAs dominating the read set) by identifying scaling factors that minimize log-fold changes between samples across the majority of microRNAs.
For exploratory data analysis we applied principal component analysis (PCA) to the dataset of 50 most variable microRNAs according to the coefficient of variation. The PCA plot clearly indicates an effect of […] (dox) treatment on circulating microRNA levels in p16-3MR mice compared to the PBS treated control animals (FIG. 2). […] Analysis of differentially circulating miRNAs was focused on changes between dox treated versus control (PBS) to identify those miRNAs that are modulated by induction of senescence, as well as dox-GCV vs dox, in order to identify miRNAs that change after removal of senescent cells. A p-value threshold of <0.05 without correction for multiple testing was used. […] GCV-treated animals are supposed to have a reduced number of senescent cells compared to PBS due to forced apoptosis. […]

p16-3MR mice [2] = assay: RT-qPCR verification of serum circulating microRNA changes, one-way ANOVA
Protocol: p16-3MR (Demaria et al, 2014, Developmental Cell 31:722-733) mice were bred in house and maintained in the AALAC-accredited Buck Institute for Research on Aging (Novato, Calif.) animal facility. 10 to 12-week-old p16-3MR […] mice were used for experiments. Mice were divided in 4 groups and each group consisted of 8 animals, 5 female, and 3 male, respectively. In group A, control mice were injected with PBS. In group B, mice were treated with Ganciclovir (GCV) (Sigma-Aldrich) dissolved in PBS for 5 consecutive days. In group C, mice were treated with one dose of Doxorubicine hydrochloride (Sigma-Aldrich) dissolved in PBS. In group D, mice were first treated with Doxorubicine and then treated 10 days later with GCV. Mice were intraperitoneally injected with one dose of 10 mg/kg of Doxorubicine hydrochloride, and GCV was administered daily by intraperitoneal injections for 5 consecutive days at concentration of 25 mg/kg in PBS. 4 days after the last GCV dose, animals were euthanized with CO2 and blood was withdrawn immediately. Blood was then incubated for 30 min at room temperature and centrifuged at 3400×g for 10 min. Serum was carefully collected in a sterile tube without disturbing the cell pellet and stored at −80° C. for further experiments.
Total RNA extraction was performed from 200 μl of serum using the Qiagen miRNeasy extraction kit (Qiagen, Germany). RNA yield was quality checked for homogenous extraction efficiency and hemolysis on the basis qPCR amplification of spiked-in as well as hemolysis-responsive RNAs (Blondal et al). In total 2 μl total RNA were used for reverse transcription using the Exiqon Universal RT kit II (Exiqon, Denmark). The obtained cDNA samples were pre-diluted 1:40 and subsequently mixed with SYBR Green® Mix (Exiqon, Denmark) to achieve a 1:100 dilution. The mix was distributed to primer-coated 384-well plates containing dried primer pairs for 96 selected microRNA or quality control assays. QPCR amplification was performed on a Roche LightCycler 480 II, using the manufacturer's recommendation for annealing, extension and denaturation.
Raw Cq-values were computed using the 2nd derivative method. Melting curves were checked for peaks to ensure specificity of the amplification reactions. Cq-values were subsequently normalized using Spike-In controls as references, to reduce technical noise in the data.
(§1) Statistical analysis was performed using Medcalc (version 18.2.1). Normal distribution was assessed using D'Agostino-Pearson test, where normality was accepted at p>0.05. One-way ANOVA together together with Student-Newman-Keuls test for all pairwise comparisons (post-hoc tests) was used to identify significant changes between groups (p<0.05). To assess the discriminatory power of individual microRNAs, receiver operating characteristic (ROC) analysis was applied. ROC curves were plotted using sensitivity (y-axis) and 1-specificity (x-axis) and the area under the ROC curve (AUC) was calculated. MicroRNAs with AUC-values of >0.7 were considered as good discriminators/biomarkers. MicroRNAs with AUC-values >0.8 were considered very good discriminators/biomarkers.

p16-3MR mice [3] = assay: ROC analysis of discriminatory power of circulating microRNAs; details: serum, RT-qPCR, symbol after the number = significance
Protocol: as §1
In order to assess the diagnostic power of circulating microRNAs for the exposure with senescence inducing substances (DOX) as well as the efficacy of senolytic treatment, ROC analysis was performed and the area-under-the-curve (AUC) was calculated. […] Table 23 below summarizes AUC values as well as 95% confidence intervals for 24 selected circulating microRNAs.

Substance: miR-27a-3p: circulating microRNA biomarker, SEQ ID No. 5 (UUCACAGUGGCUAAGUUCCGC; expressed or natural sequence; listed as Homo sapiens)
- serum level after rescue with dox+GCV (removal of senescent cells) (p16-3MR mice [1]; in words): decreased
- serum level in dox-treated animals compared to PBS controls (p16-3MR mice [1]; in words): higher; also recorded: increased
- log fold change (p16-3MR mice [1]; serum miRNA, dox vs pbs, p16-3MR mice): 1.08
- avg TPM dox (p16-3MR mice [1]; serum miRNA, dox-treated p16-3MR mice): 16.50 TPM
- change of serum level following senolytic treatment (DOX/GCV compared to DOX) (p16-3MR mice [2]; p<0.05, in words): significantly changed
- One-way ANOVA Senolytic Treatment (DOX/GCV) (p16-3MR mice [2]; serum, DOX/GCV compared to DOX): * (significant p < 0.05)
- One-way ANOVA Senescence (DOX vs PBS) (p16-3MR mice [2]; serum, n=8 per group, male and female mice): ○
- ROC Analysis AUC Senescence (p16-3MR mice [3]; DOX vs PBS): 0.664°
- ROC Analysis AUC Senolytic Treatment (p16-3MR mice [3]; DOX/GCV vs DOX): 0.719+
